Data: the supplement of paper PMC10307832

Key:
Test in all cases: relative viability (nuclei count vs DMSO), 5 days (fraction); higher = more cells survive
[1] = compound: C1=CC=C2C(=C1)C=CC(=C2SSC3=C(C=CC4=CC=CC=C43)O)O [IPA-3] + Cc1nc(NC(=O)N2CCC[C@H]2C(N)=O)sc1-c1ccnc(C(C)(C)C(F)(F)F)c1 [Alpelisib] (partner 2 µM)
In short: (§1)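 Lung cancer cell lines in 1536-well plates got either a single drug or a fixed anchor-drug dose together with five library-drug doses (not always all listed) in √10 steps, by pin tool, on the day after seeding. Nuclei were counted after 5 days, and relative viability is the treated-to-vehicle ratio of nuclei counts. Values are medians of duplicate plates.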

[2] = compound: Cc1ccc(-n2nc(C(C)(C)C)cc2NC(=O)Nc2ccc(OCCN3CCOCC3)c3ccccc23)cc1 [Doramapimod] + CC(=O)Nc1cccc(-n2c(=O)n(C3CC3)c(=O)c3c(Nc4ccc(I)cc4F)n(C)c(=O)c(C)c32)c1 [Trametinib] (partner 0.02 µM)
In short: as §1

[3] = compound: Cc1ccc(-n2nc(C(C)(C)C)cc2NC(=O)Nc2ccc(OCCN3CCOCC3)c3ccccc23)cc1 [Doramapimod] + CS(=O)(=O)CCNCc1ccc(-c2ccc3ncnc(Nc4ccc(OCc5cccc(F)c5)c(Cl)c4)c3c2)o1 [Lapatinib] (partner 2 µM)
In short: as §1

[4] = compound: C1=CC=C2C(=C1)C=CC(=C2SSC3=C(C=CC4=CC=CC=C43)O)O [IPA-3] + O=C(c1cc(Cc2n[nH]c(=O)c3ccccc23)ccc1F)N1CCN(C(=O)C2CC2)CC1 [Olaparib] (partner 8 µM)
In short: as §1

LK-2
relative viability ([1]; first compound 0.2 µM): 1.13 | relative viability ([1]; first compound 0.6325 µM): 1.02 | relative viability ([1]; first compound 2 µM): 1.19 | relative viability ([1]; first compound 6.325 µM): 1.19 | relative viability ([1]; first compound 20 µM): 1.22 | relative viability ([2]; first compound 0.02 µM): 0.587 | relative viability ([2]; first compound 0.06325 µM): 0.727 | relative viability ([2]; first compound 0.2 µM): 0.715 | relative viability ([2]; first compound 0.6325 µM): 0.31 | relative viability ([2]; first compound 2 µM): 0.647 | relative viability ([3]; first compound 0.02 µM): 0.972 | relative viability ([3]; first compound 0.06325 µM): 0.873 | relative viability ([3]; first compound 0.2 µM): 0.904 | relative viability ([3]; first compound 0.6325 µM): 0.68 | relative viability ([3]; first compound 2 µM): 0.754 | relative viability ([4]; first compound 0.2 µM): 0.831 | relative viability ([4]; first compound 0.6325 µM): 0.615 | relative viability ([4]; first compound 2 µM): 0.788 | relative viability ([4]; first compound 6.325 µM): 0.988 | relative viability ([4]; first compound 20 µM): 0.938

LOU-NH91
relative viability ([1]; first compound 0.2 µM): 0.717 | relative viability ([1]; first compound 0.6325 µM): 0.702 | relative viability ([1]; first compound 2 µM): 0.723 | relative viability ([1]; first compound 6.325 µM): 0.674 | relative viability ([1]; first compound 20 µM): 0.914 | relative viability ([2]; first compound 0.02 µM): 0.802 | relative viability ([2]; first compound 0.06325 µM): 0.771 | relative viability ([2]; first compound 0.2 µM): 0.761 | relative viability ([2]; first compound 0.6325 µM): 0.767 | relative viability ([2]; first compound 2 µM): 0.678 | relative viability ([3]; first compound 0.02 µM): 0.693 | relative viability ([3]; first compound 0.06325 µM): 0.673 | relative viability ([3]; first compound 0.2 µM): 0.678 | relative viability ([3]; first compound 0.6325 µM): 0.631 | relative viability ([3]; first compound 2 µM): 0.628 | relative viability ([4]; first compound 0.2 µM): 0.953 | relative viability ([4]; first compound 0.6325 µM): 0.911 | relative viability ([4]; first compound 2 µM): 0.965 | relative viability ([4]; first compound 6.325 µM): 0.896 | relative viability ([4]; first compound 20 µM): 1.03

LU99A
relative viability ([1]; first compound 0.2 µM): 0.551 | relative viability ([1]; first compound 0.6325 µM): 0.451 | relative viability ([1]; first compound 2 µM): 0.512 | relative viability ([1]; first compound 6.325 µM): 0.531 | relative viability ([1]; first compound 20 µM): 0.528 | relative viability ([2]; first compound 0.02 µM): 0.501 | relative viability ([2]; first compound 0.06325 µM): 0.511 | relative viability ([2]; first compound 0.2 µM): 0.545 | relative viability ([2]; first compound 0.6325 µM): 0.645 | relative viability ([2]; first compound 2 µM): 0.477 | relative viability ([3]; first compound 0.02 µM): 0.959 | relative viability ([3]; first compound 0.06325 µM): 1 | relative viability ([3]; first compound 0.2 µM): 0.981 | relative viability ([3]; first compound 0.6325 µM): 1.1 | relative viability ([3]; first compound 2 µM): 0.897 | relative viability ([4]; first compound 0.2 µM): 0.304 | relative viability ([4]; first compound 0.6325 µM): 0.268 | relative viability ([4]; first compound 2 µM): 0.291 | relative viability ([4]; first compound 6.325 µM): 0.277 | relative viability ([4]; first compound 20 µM): 0.249

NCI-H441
relative viability ([1]; first compound 0.2 µM): 0.942 | relative viability ([1]; first compound 2 µM): 0.628 | relative viability ([1]; first compound 6.325 µM): 0.668 | relative viability ([1]; first compound 20 µM): 0.782 | relative viability ([2]; first compound 0.02 µM): 0.511 | relative viability ([2]; first compound 0.06325 µM): 0.524 | relative viability ([2]; first compound 0.2 µM): 0.457 | relative viability ([2]; first compound 0.6325 µM): 0.568 | relative viability ([2]; first compound 2 µM): 0.366 | relative viability ([4]; first compound 0.2 µM): 0.759 | relative viability ([4]; first compound 0.6325 µM): 0.507 | relative viability ([4]; first compound 2 µM): 0.48 | relative viability ([4]; first compound 6.325 µM): 0.409 | relative viability ([4]; first compound 20 µM): 0.432

NCI-H522
relative viability ([2]; first compound 0.02 µM): 0.717 | relative viability ([2]; first compound 0.06325 µM): 0.703 | relative viability ([2]; first compound 0.2 µM): 0.799 | relative viability ([2]; first compound 0.6325 µM): 0.727 | relative viability ([2]; first compound 2 µM): 0.633 | relative viability ([4]; first compound 0.2 µM): 0.52 | relative viability ([4]; first compound 0.6325 µM): 0.663 | relative viability ([4]; first compound 2 µM): 0.699 | relative viability ([4]; first compound 6.325 µM): 0.571 | relative viability ([4]; first compound 20 µM): 0.671

NCI-H1299
relative viability ([1]; first compound 0.2 µM): 1.07 | relative viability ([1]; first compound 0.6325 µM): 1.07 | relative viability ([1]; first compound 2 µM): 1.02 | relative viability ([1]; first compound 6.325 µM): 1.07 | relative viability ([1]; first compound 20 µM): 1.06 | relative viability ([3]; first compound 0.02 µM): 0.991 | relative viability ([3]; first compound 0.06325 µM): 0.952 | relative viability ([3]; first compound 0.2 µM): 0.956 | relative viability ([3]; first compound 0.6325 µM): 0.972 | relative viability ([3]; first compound 2 µM): 0.925 | relative viability ([4]; first compound 0.2 µM): 1.02 | relative viability ([4]; first compound 0.6325 µM): 0.953 | relative viability ([4]; first compound 2 µM): 0.983 | relative viability ([4]; first compound 6.325 µM): 0.963 | relative viability ([4]; first compound 20 µM): 0.983

NCI-H1563
relative viability ([1]; first compound 0.2 µM): 0.987 | relative viability ([1]; first compound 0.6325 µM): 0.982 | relative viability ([1]; first compound 2 µM): 1.06 | relative viability ([1]; first compound 6.325 µM): 0.949 | relative viability ([1]; first compound 20 µM): 1.07 | relative viability ([3]; first compound 0.02 µM): 0.935 | relative viability ([3]; first compound 0.06325 µM): 0.923 | relative viability ([3]; first compound 0.2 µM): 1.04 | relative viability ([3]; first compound 0.6325 µM): 0.681 | relative viability ([3]; first compound 2 µM): 0.907

NCI-H1648
relative viability ([2]; first compound 0.02 µM): 0.435 | relative viability ([2]; first compound 0.06325 µM): 0.46 | relative viability ([2]; first compound 0.2 µM): 0.508 | relative viability ([2]; first compound 0.6325 µM): 0.582 | relative viability ([2]; first compound 2 µM): 0.402 | relative viability ([4]; first compound 0.2 µM): 1.05 | relative viability ([4]; first compound 0.6325 µM): 0.906 | relative viability ([4]; first compound 2 µM): 0.84 | relative viability ([4]; first compound 6.325 µM): 0.739 | relative viability ([4]; first compound 20 µM): 0.873

NCI-H1650
relative viability ([2]; first compound 0.02 µM): 0.612 | relative viability ([2]; first compound 0.06325 µM): 0.665 | relative viability ([2]; first compound 0.2 µM): 0.734 | relative viability ([2]; first compound 0.6325 µM): 0.763 | relative viability ([2]; first compound 2 µM): 0.496 | relative viability ([3]; first compound 0.02 µM): 0.665 | relative viability ([3]; first compound 0.06325 µM): 0.736 | relative viability ([3]; first compound 0.2 µM): 0.795 | relative viability ([3]; first compound 0.6325 µM): 0.247 | relative viability ([3]; first compound 2 µM): 0.786 | relative viability ([4]; first compound 0.2 µM): 0.947 | relative viability ([4]; first compound 0.6325 µM): 0.74 | relative viability ([4]; first compound 2 µM): 0.877 | relative viability ([4]; first compound 6.325 µM): 0.715 | relative viability ([4]; first compound 20 µM): 0.746

NCI-H1703
relative viability ([1]; first compound 0.2 µM): 0.362 | relative viability ([1]; first compound 0.6325 µM): 0.289 | relative viability ([1]; first compound 2 µM): 0.304 | relative viability ([1]; first compound 6.325 µM): 0.301 | relative viability ([1]; first compound 20 µM): 0.397 | relative viability ([3]; first compound 0.02 µM): 1.11 | relative viability ([3]; first compound 0.06325 µM): 0.983 | relative viability ([3]; first compound 0.2 µM): 0.949 | relative viability ([3]; first compound 0.6325 µM): 0.987 | relative viability ([3]; first compound 2 µM): 0.716 | relative viability ([4]; first compound 0.2 µM): 0.807 | relative viability ([4]; first compound 0.6325 µM): 0.479 | relative viability ([4]; first compound 2 µM): 0.38 | relative viability ([4]; first compound 6.325 µM): 0.459 | relative viability ([4]; first compound 20 µM): 0.581

NCI-H2342
relative viability ([2]; first compound 0.02 µM): 0.838 | relative viability ([2]; first compound 0.06325 µM): 0.844 | relative viability ([2]; first compound 0.2 µM): 0.754 | relative viability ([2]; first compound 0.6325 µM): 0.817 | relative viability ([2]; first compound 2 µM): 0.847 | relative viability ([4]; first compound 0.2 µM): 0.468 | relative viability ([4]; first compound 0.6325 µM): 0.4 | relative viability ([4]; first compound 2 µM): 0.559 | relative viability ([4]; first compound 6.325 µM): 0.46 | relative viability ([4]; first compound 20 µM): 0.473

SW 900
relative viability ([2]; first compound 0.02 µM): 0.761 | relative viability ([2]; first compound 0.06325 µM): 0.875 | relative viability ([2]; first compound 0.2 µM): 0.974 | relative viability ([2]; first compound 0.6325 µM): 0.749 | relative viability ([2]; first compound 2 µM): 0.769 | relative viability ([4]; first compound 0.2 µM): 0.684 | relative viability ([4]; first compound 0.6325 µM): 0.683 | relative viability ([4]; first compound 2 µM): 0.811 | relative viability ([4]; first compound 6.325 µM): 0.832 | relative viability ([4]; first compound 20 µM): 1.03
